Here are results for one compound from patent US20070071692A1, “Aerosol powder formulation” (priority 2005, published 2007).

A short description of the data set: Particle size of unmilled and jet milled Compound X (optical microscopy, Microtrac, Aerosizer, SEM). In kind it is physicochemical. An excerpt:
In the studies described below the aerosol performance of micronized Compound X with three different grades of lactose made specifically for inhalation in an Spinhaler® is compared. The carriers studied were milled lactose for inhalation (Respitose™ ML003), sieved lactose for inhalation (Respitose SV003) and granulated lactose for inhalation (Respitose LS243). Each carrier was characterized for particle size, flow properties and morphology. Jet milled Compound X, with an average particle size of 2.8 microns was used in the studies. […] Blends were manufactured with 4% w/w drug loading at a scale of 1 g. Capsules were then filled with 25 mg of blend to achieve a 1 mg nominal dose. Each blend was characterized for blend uniformity, dose uniformity and aerodynamic particle size distribution. Granulated lactose produced the weakest drug aerosolization compared to milled and sieved lactose. […] The delivered shot weight was 92% of target with an in-vitro respirable fraction of 26% and an emitted dose of 34%. The formulation is considered appropriate for animal model studies use however optimization of the formulation and the blending characteristics will be pursued following results from the in-vivo animal studies. Three jet milled samples of Compound X observed using X-ray powder diffraction (XRPD) and thermogravimetry (TGA) that the jet milled samples had similar properties to the unmilled lots. The samples retained their crystalline form. By SEM, it was observed that the jet milled drug was smaller in particle size compared to the unmilled drug, while maintaining the needle-like morphology. Drug particle size ranged from ca. 2-25 μm in length and ca. 2 μm in width with agglomerates up to 50 μm in diameter. Only one of the jet milled lots was used for the described studies below.

The structures appear in SMILES notation.

In the case of `O=C(NC1CC1)c1cn(-c2cccc(C#Cc3ccc[n+]([O-])c3)c2)c2ncccc2c1=O` [Milled API, N-cyclopropyl-1-[3-(1-oxido-3-pyridinylethynyl)phenyl]-1,4-dihydro[1,8]naphthyridin-4-one-3-carboxamide], for the setting “SEM, jet milled”, the “Drug particle size, length” value is given as 2-25 μm; the “Drug particle size, width” value is “ca. 2 μm”; the “agglomerates, diameter” value is reported as “up to 50 μm”. For the setting “jet milled drug used in the studies”, this compound displayed an average particle size of 2.8 microns.
